Key:
A549 cells [1] = test: Cancer cell toxicity of CBD, WST-8 cell survival; format: cell-based; conditions: Homo sapiens, A549, 48 h
Experimental: Specifically, A549 cells, a lung cancer cell line, were seeded in 96-well plates at a concentration of 1×10^4 cells/well, cultured in a 37° C., 10% CO2 incubator for 24 hours, then treated with CBD in a concentration-dependent manner and cultured under the same conditions for 48 hours. After completion of culture, 1/10 of WST-8 solution (Quanti-Max™, BIOMAX, Korea) was added to the medium, and after additional culture at 37° C. for 1 hour, the cell survival rate was determined by measuring absorbance at 450 nm, and expressed as a percentage of the control without any treatment. The experiment was conducted independently and repeated three times.

A549 cells [2] = test: Anti-cancer agents with or without CBD, WST-8 cell survival; format: cell-based; conditions: A549, 48 h
Experimental: After completion of culture, 1/10 of WST-8 solution (Quanti-Max™, BIOMAX, Korea) was added to the medium, and after additional culture at 37° C. for 1 hour, the cell survival rate was determined by measuring absorbance at 450 nm, and expressed as a percentage of the control without any treatment. The experiment was conducted independently and repeated three times.

A549 cells [3] = test: Western blotting of apoptosis- and autophagy-related proteins after combined treatment; format: cell-based; conditions: A549, 24 h, etoposide combined with CBD (15 μM)
Experimental: After completion of culture, the cells were harvested and the proteins were quantified using the bradford assay (Bio-Rad, japan), and the proteins (30 ug/well) were separated by electrophoresis on NuPAGE 4-12% Bis-Tris gels (Invitrogen) and transferred to polyvinylidene difluoride (PVDF). Next, the PVDF membrane was reacted with a primary antibody (Monoclonal antibody, Cell signaling technology, USA) specific for PARP[Poly (ADP-ribose) polymerase], cleaved caspase9, cleaved caspase8, LC3B or GAPDH for 1 hour at room temperature, followed by reacting with an anti-rabbit secondary antibody (Cell signaling technology) for 1 hour. The antibodies bound to PVDF were visualized using ECL Advance Western Blotting Detection Reagents (GE Healthcare, UK) and LAS 4000 imaging system (Fujifilm, Japan).

A549 cells [4] = test: cells; conditions: Homo sapiens, A549, 48 h
A549 cells [5] = test: Apoptosis by Fluorescence Activated Cell Sorting (FACS); format: cell-based; conditions: A549, combined treatment of etoposide and CBD compared to individual treatment
Text: In addition, the apoptosis results of the combination treatment were re-validated using a Fluorescence Activated Cell Sorting (FACS) system.

[6] = Homo sapiens, read-out: IC50 (μM), with CBD (15 μM)
[7] = Homo sapiens, read-out: IC50 (μM), without CBD
[8] = etoposide concentration-dependent

SMILES: C=C(C)[C@@H]1CCC(C)=C[C@H]1c1c(O)cc(CCCCC)cc1O [CBD, 2-[(1R,6R)-3-methyl-6-prop-1-en-2-ylcyclohex-2-en-1-yl]-5-pentylbenzene-1,3-diol]
- IC50 (A549 cells [1]): 18.6 µM

SMILES: COc1cc2nccc(Oc3ccc(NC(=O)C4(C(=O)Nc5ccc(F)cc5)CC4)cc3)c2cc1OC [Cabozantinib (XL184), Cabozantinib]
- IC50 (A549 cells [2]; [6]): 4.14 µM
- IC50 (A549 cells [2]; [7]): 8.29 µM

SMILES: CNC(=O)c1cc(Oc2ccc(NC(=O)Nc3ccc(Cl)c(C(F)(F)F)c3)cc2)ccn1 [Sorafenib]
- IC50 (A549 cells [2]; [6]): 4.26 µM
- IC50 (A549 cells [2]; [7]): 8.97 µM

SMILES: CCC1=C[C@@H]2CN(C1)Cc1c([nH]c3ccccc13)[C@@](C(=O)OC)(c1cc3c(cc1OC)N(C)[C@H]1[C@@](O)(C(=O)OC)[C@H](OC(C)=O)[C@]4(CC)C=CCN5CC[C@]31[C@@H]54)C2 [Vinorelbine]
- IC50 (A549 cells [2]; [6]): 6.38 µM
- IC50 (A549 cells [2]; [7]): 12.4 µM

SMILES: CNC(=O)c1cc(Oc2ccc(NC(=O)Nc3ccc(Cl)c(C(F)(F)F)c3)c(F)c2)ccn1 [Regorafenib]
- IC50 (A549 cells [2]; [6]): 4.11 µM
- IC50 (A549 cells [2]; [7]): 5.27 µM

SMILES: COc1cc2nccc(Oc3ccc(NC(=O)NC4CC4)c(Cl)c3)c2cc1C(N)=O [Lenvatinib]
- IC50 (A549 cells [2]; [6]): 16.9 µM
- IC50 (A549 cells [2]; [7]): 19.9 µM

SMILES: N.N.O=C([O-])C1(C(=O)[O-])CCC1.[Pt+2] [Carboplatin]
- IC50 (A549 cells [2]; read-out: IC50 (μM), 48 h, with CBD, with CBD (15 μM)): > 100 µM

SMILES: COc1cc([C@@H]2c3cc4c(cc3[C@@H](O[C@@H]3O[C@@H]5CO[C@@H](C)O[C@H]5[C@H](O)[C@H]3O)[C@H]3COC(=O)[C@H]23)OCO4)cc(OC)c1O [Etoposide (VP-16), etoposide]
- expression of Bcl-2 protein (A549 cells [3]): decreased
- expression of autophagy-related protein LC3-II (A549 cells [3]): increased
- expression of Bax protein (A549 cells [3]; [8]): increased
- expression of cleaved PARP protein (A549 cells [3]; [8]): increased
- expression of cleaved caspase8 protein (A549 cells [3]; [8]): increased
- expression of cleaved caspase9 protein (A549 cells [3]; [8]): increased
- IC50 (A549 cells [2]; [6]): 51.4 µM
- IC50 (A549 cells [4]; read-out: cytotoxicity (IC50) of etoposide alone): 106 µM
- IC50 (A549 cells [4]; read-out: cytotoxicity (IC50) of etoposide upon combined treatment with CBD): 51.4 µM
- number of early apoptotic cells (A549 cells [5]): significantly increased
